Measurements published in patent US6277847A, “Herbicidal isoindolinonyl-and 3,4-dihydroisoquinolonyl-substituted heterocycles” (FMC Corporation, priority 2000, dated 2001).

Legend:
Format in all cases: in vivo
[1] = test system: common cocklebur (Xanthium strumarium L.); assay: post-emergence herbicidal activity, cocklebur; details: 1 Kg/Ha, about fourteen days, read-out: post-emergence herbicidal activity (% control) XANPE
Protocol: (§1) This example sets forth the methods of herbicidal testing conducted on the specific compounds set forth below. Specifically, the compounds referenced below were tested for pre- and post-emergence herbicidal activity using a variety of crops and weeds. The test plants include, but are not limited to, soybean (Glycine max -- var. Winchester), field corn (Zea mays var. Pioneer 3732), wheat (Triticum aestivum var. Lew), morningglory (Ipomea lacunosa or Ipomea hederacea), velvetleaf (Abutilon theophrasti), green foxtail (Setaria viridis), Johnsongrass (Sorghum halepense), blackgrass (Aloepecurus myosuroides), common chickweed (Stellaria media), and common cocklebur (Xanthium strumarium L.).
(§2) In the post-emergence test, seeds of the plant species named above were planted in flats containing the appropriate soil mixture where they were maintained to allow the seeds to germinate. When the plants in these flats reached the proper stage of growth, flats for the pre-emergence tests were planted in a like manner. The flats containing the post-emergence and pre-emergence test plant species were then sprayed with an appropriately concentrated water/acetone solution of test compound. Once treated the flats were maintained, along with untreated controls, for about fourteen days. All treated plants were then examined for phytotoxicity, which was expressed as percent control where 0 is no effect and 100 is complete control. Effective rates of application for the compounds of the present invention range from 0.001 to 3 kg/ha, more likely from […] to 1 Kg/ha.
(§3) Herbicidal activity data at selected application rates are in Tables 4 and 5. The test compounds are identified by numbers correspond to those in Table 1.
(§4) SOY is soybean, WHT is wheat, CRN is corn, ABUTH is velvetleaf, IPOSS is
(§5) morningglory, STEME is chickweed, XANPE is cocklebur, ALOMY is blackgrass,
(§6) Rate of application of test compound is 1 Kg/Ha. The definitions as shown under Table 4 apply to Table 5.

[2] = test system: Johnsongrass (Sorghum halepense); assay: pre-emergence herbicidal activity, johnsongrass; details: 1 kg/Ha, about fourteen days, read-out: pre-emergence herbicidal activity (% control) SORHA
Protocol: as §1, §2, §3
(§7) Rate of application of test compound is 1 kg/Ha
as §4
(§8) morningglory, STEME is chickweed, XANPE is cocklebur, ALOMY is blackgrass, […]

[3] = test system: green foxtail (Setaria viridis); assay: pre-emergence herbicidal activity, green foxtail; details: 1 kg/Ha, about fourteen days, read-out: pre-emergence herbicidal activity (% control) SETVI
Protocol: as §1, §2, §3, §7, §4, §8

[4] = test system: velvetleaf (Abutilon theophrasti); assay: pre-emergence herbicidal activity, velvetleaf; details: 1 kg/Ha, about fourteen days, read-out: pre-emergence herbicidal activity (% control) ABUTH
Protocol: as §1, §2, §3, §7, §4, §8

[5] = test system: field corn (Zea mays var. Pioneer 3732); assay: post-emergence herbicidal activity, corn; details: 1 Kg/Ha, about fourteen days, read-out: post-emergence herbicidal activity (% control) CRN
Protocol: as §1, §2, §3, §4, §5, §6

[6] = test system: blackgrass (Aloepecurus myosuroides); assay: pre-emergence herbicidal activity, blackgrass; details: Alopecurus myosuroides, 1 kg/Ha, about fourteen days, read-out: pre-emergence herbicidal activity (% control) ALOMY
Protocol: as §1, §2, §3, §7, §4, §8

[7] = test system: green foxtail (Setaria viridis); assay: post-emergence herbicidal activity, green foxtail; details: 1 Kg/Ha, about fourteen days, read-out: post-emergence herbicidal activity (% control) SETVI
Protocol: as §1, §2, §3, §4, §5, §6

[8] = test system: common chickweed (Stellaria media); assay: pre-emergence herbicidal activity, chickweed; details: 1 kg/Ha, about fourteen days, read-out: pre-emergence herbicidal activity (% control) STEME
Protocol: as §1, §2, §3, §7, §4, §8

[9] = test system: common cocklebur (Xanthium strumarium L.); assay: pre-emergence herbicidal activity, cocklebur; details: 1 kg/Ha, about fourteen days, read-out: pre-emergence herbicidal activity (% control) XANPE
Protocol: as §1, §2, §3, §7, §4, §8

[10] = test system: Johnsongrass (Sorghum halepense); assay: post-emergence herbicidal activity, johnsongrass; details: 1 Kg/Ha, about fourteen days, read-out: post-emergence herbicidal activity (% control) SORHA
Protocol: as §1, §2, §3, §4, §5, §6

[11] = test system: velvetleaf (Abutilon theophrasti); assay: post-emergence herbicidal activity, velvetleaf; details: 1 Kg/Ha, about fourteen days, read-out: post-emergence herbicidal activity (% control) ABUTH
Protocol: as §1, §2, §3, §4, §5, §6

[12] = test system: wheat (Triticum aestivum var. Lew); assay: pre-emergence herbicidal activity, wheat; details: 1 kg/Ha, about fourteen days, read-out: pre-emergence herbicidal activity (% control) WHT
Protocol: as §1, §2, §3, §7, §4, §8

[13] = test system: field corn (Zea mays var. Pioneer 3732); assay: pre-emergence herbicidal activity, corn; details: 1 kg/Ha, about fourteen days, read-out: pre-emergence herbicidal activity (% control) CRN
Protocol: as §1, §2, §3, §7, §4, §8

[14] = test system: morningglory (Ipomea lacunosa or Ipomea hederacea); assay: pre-emergence herbicidal activity, morningglory; details: Ipomoea, 1 kg/Ha, about fourteen days, read-out: pre-emergence herbicidal activity (% control) IPOSS
Protocol: as §1, §2, §3, §7, §4, §8

[15] = test system: wheat (Triticum aestivum var. Lew); assay: post-emergence herbicidal activity, wheat; details: 1 Kg/Ha, about fourteen days, read-out: post-emergence herbicidal activity (% control) WHT
Protocol: as §1, §2, §3, §4, §5, §6

[16] = test system: soybean (Glycine max -- var. Winchester); assay: pre-emergence herbicidal activity, soybean; details: 1 kg/Ha, about fourteen days, read-out: pre-emergence herbicidal activity (% control) SOY
Protocol: as §1, §2, §3, §7, §4, §8

[17] = test system: morningglory (Ipomea lacunosa or Ipomea hederacea); assay: post-emergence herbicidal activity, morningglory; details: Ipomoea, 1 Kg/Ha, about fourteen days, read-out: post-emergence herbicidal activity (% control) IPOSS
Protocol: as §1, §2, §3, §4, §5, §6

[18] = test system: soybean (Glycine max -- var. Winchester); assay: post-emergence herbicidal activity, soybean; details: 1 Kg/Ha, about fourteen days, read-out: post-emergence herbicidal activity (% control) SOY
Protocol: as §1, §2, §3, §4, §5, §6

[19] = test system: common chickweed (Stellaria media); assay: post-emergence herbicidal activity, chickweed; details: 1 Kg/Ha, about fourteen days, read-out: post-emergence herbicidal activity (% control) STEME
Protocol: as §1, §2, §3, §4, §5, §6

[20] = test system: blackgrass (Aloepecurus myosuroides); assay: post-emergence herbicidal activity, blackgrass; details: Alopecurus myosuroides, 1 Kg/Ha, about fourteen days, read-out: post-emergence herbicidal activity (% control) ALOMY
Protocol: as §1, §2, §3, §4, §5, §6

SMILES | activity at 1000 g/ha [1] [%] | activity at 1000 g/ha [2] [%] | activity at 1000 g/ha [3] [%] | activity at 1000 g/ha [4] [%] | activity at 1000 g/ha [5] [%] | activity at 1000 g/ha [6] [%] | activity at 1000 g/ha [7] [%] | activity at 1000 g/ha [8] [%] | activity at 1000 g/ha [9] [%] | activity at 1000 g/ha [10] [%] | activity at 1000 g/ha [11] [%] | activity at 1000 g/ha [12] [%] | activity at 1000 g/ha [13] [%] | activity at 1000 g/ha [14] [%] | activity at 1000 g/ha [15] [%] | activity at 1000 g/ha [16] [%] | activity at 1000 g/ha [17] [%] | activity at 1000 g/ha [18] [%] | activity at 1000 g/ha [19] [%] | activity at 1000 g/ha [20] [%]
CCCN1Cc2c(-n3c(=O)cc(C(F)(F)F)n(C)c3=O)ccc(Cl)c2C1=O [Compound 13] | 95 | 100 | 100 | 100 | 100 | 100 | 100 | 100 | 100 | 100 | 100 | 100 | 100 | 100 | 100 | 100 | 100 | 100 | – | –
Cn1c(C(F)(F)F)cc(=O)n(-c2ccc(Cl)c3c2CN(C(C)(C)C)C3=O)c1=O [Compound 14, 3-[7-chloro-2-(1,1-dimethylethyl)isoindolin-1-on-4-yl]-1-methyl-6-trifluoromethyl-2,4(1H,3H)-pyrimidinedione] | 100 | 100 | 100 | 100 | 80 | 100 | 100 | 100 | 100 | 100 | 100 | 100 | 100 | 100 | 100 | 100 | 90 | 100 | – | –
Cn1c(C(F)(F)F)cc(=O)n(-c2c(Cl)cc(Cl)c3c2CNC3=O)c1=O [Compound 15] | 60 | 100 | 100 | 100 | 60 | 100 | 60 | 60 | 100 | 40 | 100 | 95 | 95 | 100 | 50 | 100 | 100 | 70 | – | –
Cn1c(C(F)(F)F)cc(=O)n(-c2c(Cl)cc(Cl)c3c2CN(O)C3=O)c1=O [Compound 16] | 30 | 100 | 100 | 100 | 40 | 60 | 30 | 5 | 80 | 30 | 50 | 70 | 90 | 65 | 20 | 50 | 20 | 60 | – | –
CCON1Cc2c(-n3c(=O)cc(C(F)(F)F)n(C)c3=O)ccc(Cl)c2C1=O [Compound 19] | 100 | 100 | 100 | 100 | 100 | – | 100 | 100 | 100 | 100 | 100 | 100 | 100 | 100 | 100 | 100 | 100 | 100 | 100 | –
C=CCN1Cc2c(-n3c(=O)cc(C(F)(F)F)n(C)c3=O)ccc(Cl)c2C1=O [Compound 20] | 100 | 100 | 100 | 100 | 100 | – | 100 | 100 | 100 | 100 | 100 | 100 | 100 | 100 | 100 | 100 | 100 | 100 | 100 | –
CON1Cc2c(-n3c(=O)cc(C(F)(F)F)n(C)c3=O)ccc(Cl)c2C1=O [Compound 21] | 95 | 100 | 100 | 100 | 80 | – | 100 | 100 | 100 | 100 | 100 | 100 | 100 | 100 | 80 | 100 | 100 | 100 | 100 | –
CCN1Cc2c(-n3c(=O)cc(C(F)(F)F)n(C)c3=O)ccc(Cl)c2C1=O [Compound 22] | 100 | 100 | 100 | 100 | 100 | – | 100 | 100 | 100 | 100 | 100 | 100 | 100 | 100 | 100 | 100 | 100 | 100 | 100 | –
CCn1c(C(F)(F)F)cc(=O)n(-c2ccc(Cl)c3c2CN(C(C)C)C3=O)c1=O [Compound 71] | 70 | – | 100 | 100 | 90 | 90 | 100 | 100 | 100 | – | 95 | 100 | 100 | 100 | 80 | 100 | 95 | 90 | 100 | 100
